Measured values reported in patent US20230149337A1, “OPHTHALMIC FORMULATION AND ITS USE” (OY FINNSUSP AB, priority 2020, published 2023).
In brackets after ≈: the same amount, converted by molar mass. Read-outs that look alike come from different tables or passages of the source.

Legend:
[1] = Langmuir trough: surface pressure isotherms and BAM of pure films; assay type: physicochemical; conditions: pure film under compression
Method: The interactions of the microemulsion formulation SIME02A explained in Example 2 with a tear film lipid layer (TFLL) component were studied in a Langmuir trough model system. A naturally occurring lipid 20 (oleoyloxy)icosanoic acid (20-OAHFA) which represents the O-acyl-ω-hydroxy fatty acids in the TFLL was selected as a model lipid and synthesized as described in Bland et al. Langmuir 2019, 35, 3545-3552. The experiments were performed on a KSV NIMA Large trough equipped with a surface pressure balance with a platinum Wilhelmy plate, a KSV SPOT surface potential meter and KSV NIMA microBAM Brewster angle microscope (BAM), all from Biolin Scientific (Stockholm, Sweden). The Langmuir trough system was enclosed in a plastic hood with an inlet supply of dry and ozone-depleted air (Ozone solutions ODS-3P, Hull, Iow. USA) to prevent oxidation of lipids.
The Langmuir trough was filled with phosphate-buffered saline (PBS) as a subphase maintained at 35±1° C. to emulate the aqueous layer of the tear film. The model lipid 20-OAHFA or pure sacha inchi (SI) seed oil was dissolved in chloroform and spread on the surface of the PBS subphase. Chloroform was allowed to evaporate for 5 min. […] The lipid film was compressed and expanded in the trough with two Delrin barriers at a rate of 13 mm/min while the surface pressure and surface potential were measured. […]

[2] = Solubility of dexamethasone in microemulsion formulations; assay type: physicochemical; conditions: for solubility: aqueous with cosolvent or surfactant or cyclodextrin, equilibrium from dmso stock, room temperature, 8-9 days, read-out: Solubility of DXM
Method: The solubility of dexamethasone (DXM) in the microemulsion formulations was studied. To formulations containing 0.1%, 0.5%, 1%, or 5% of the sacha inchi seed oil, DXM ([…] stock in dimethyl sulfoxide, DMSO) was added at concentrations of […] in triplicate. […] The test vials were incubated at room temperature with continuous shaking (90 rpm) for 8-9 days until equilibrium. After incubation, the samples were mixed 1:1 with acetonitrile for 10 min and centrifuged (13,000 rpm, 10 min), followed by immediate HPLC analysis of the supernatant for DXM concentration. HPLC analysis was performed with Agilent 1100 series HPLC system and Eclipse XDB-C18 column (1.8 μm, 4.6×50 mm; Agilent) maintained at 60° C. Isocratic elution of the 5-μl sample injected was performed with 65% Eluent A (1% TFA in Milli-Q water) and 35% Eluent B (0.1% TFA in acetonitrile) at flow rate 1 ml/min and UV detection at 240 nm.

Surface pressure of transition to a solid monolayer [1] | Solubility of DXM relative to PBS ([2]; 1% oil concentration in the formulation) | solubility ([2]; microemulsion formulation with 5% sacha inchi seed oil, microemulsion with 5% oil) | Solubility of DXM relative to PBS ([2]; microemulsion with 5% oil) | Solubility of DXM relative to PBS ([2]; microemulsions with lower oil concentrations) | solubility ([2]; phosphate-buffered saline (PBS), PBS alone) | SMILES
2.5 mN/m | – | – | – | – | – | CCCCCCCC/C=C\CCCCCCCC(=O)OCCCCCCCCCCCCCCCCCCCC(=O)O [20-OAHFA, 20 (oleoyloxy)icosanoic acid]
– | 2.5 times | ~3700 µg/mL (≈ 9.43 mM) | about 15 times | at the same level as in PBS | ~250 µg/mL (≈ 0.637 mM) | C[C@@H]1C[C@H]2[C@@H]3CCC4=CC(=O)C=C[C@]4(C)[C@@]3(F)[C@@H](O)C[C@]2(C)[C@@]1(O)C(=O)CO [DXM, Dexamethasone]
